Measurements published in patent US12655116B2, “Substituted isophthalic acid diamides” (Bayer Aktiengesellschaft, priority 2020, dated 2026).

Experiments:
VERPE [1] = test: Pre-emergence herbicidal action against VERPE; format: in vivo, Veronica persica; details: Veronica persica, 504 h, dosage 80 g/ha
Summary of the method: (§1)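 Pre-emergence soil-surface spray of formulated compound (WP or EC; 600 to 800 l/ha; 0.2% wetting agent) over seeds sown in sandy loam. After 3 weeks under greenhouse conditions, damage is estimated visually in percent against untreated plants.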

ABUTH [2] = test: Pre-emergence herbicidal action against ABUTH; format: in vivo, Abutilon theophrasti; details: Abutilon theophrasti, 504 h; for pest or weed control at 80 g/ha: scored visually after 3 weeks vs untreated controls (100% = plants have died, 0% = like control plants); for pest or weed control at 20 g/ha: dosage 20 g/ha, scored visually after 3 weeks vs untreated controls, 100% = plants have died, 0% = like control plants, read-out: Pre-emergence action against ABUTH (herbicidal activity in percent)
Summary of the method: as §1

ECHCG [3] = test: Pre-emergence herbicidal action against ECHCG; format: in vivo, Echinochloa crus-galli; details: Echinochloa crus-galli, 504 h
Summary of the method: as §1

POLCO = test: Pre-emergence herbicidal action against POLCO; format: in vivo, Polygonum convolvulus; details: Fallopia convolvulus, 504 h, dosage 80 g/ha
Summary of the method: as §1

VERPE [4] = test: Post-emergence herbicidal action against VERPE; format: in vivo, Veronica persica; details: Veronica persica, 504 h
Summary of the method: (§2)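 Spray, one-leaf stage: WP or EC compound in water, 600–800 l/ha, 0.2% wetting agent. Plants held about 3 weeks in the greenhouse, then visually rated in percent of kill compared with untreated controls.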

ECHCG [5] = test: Post-emergence herbicidal action against ECHCG; format: in vivo, Echinochloa crus-galli; details: Echinochloa crus-galli, 504 h, dosage 20 g/ha
Summary of the method: as §2

SETVI [6] = test: Pre-emergence herbicidal action against SETVI; format: in vivo, Setaria viridis; details: Setaria viridis, 504 h; for pest or weed control at 20 g/ha: dosage 20 g/ha; for pest or weed control at 80 g/ha: dosage 80 g/ha
Summary of the method: as §1

MATIN [7] = test: Pre-emergence herbicidal action against MATIN; format: in vivo, Matricaria inodora; details: Tripleurospermum inodorum, 504 h; for pest or weed control at 20 g/ha: dosage 20 g/ha; for pest or weed control at 80 g/ha: dosage 80 g/ha
Summary of the method: as §1

VIOTR [8] = test: Post-emergence herbicidal action against VIOTR; format: in vivo, Viola tricolor; details: Viola tricolor, 504 h
Summary of the method: as §2

DIGSA [9] = test: Post-emergence herbicidal action against DIGSA; format: in vivo, Digitaria sanguinalis; details: Digitaria sanguinalis, 504 h, 20 g/ha
Summary of the method: as §2

DIGSA [10] = test: Pre-emergence herbicidal action against DIGSA; format: in vivo, Digitaria sanguinalis; details: Digitaria sanguinalis, 504 h; for pest or weed control at 20 g/ha: dosage 20 g/ha; for pest or weed control at 80 g/ha: dosage 80 g/ha
Summary of the method: as §1

MATIN [11] = test: Post-emergence herbicidal action against MATIN; format: in vivo, Matricaria inodora; details: Tripleurospermum inodorum, 504 h; for pest or weed control at 5 g/ha: dosage 5 g/ha; for pest or weed control at 20 g/ha: dosage 20 g/ha
Summary of the method: as §2

AMARE [12] = test: Post-emergence herbicidal action against AMARE; format: in vivo, Amaranthus retroflexus; details: Amaranthus retroflexus, 504 h, 20 g/ha, visual assessment about 3 weeks after treatment, 100% = plants have died, 0% = like control plants
Summary of the method: as §2

VIOTR [13] = test: Pre-emergence herbicidal action against VIOTR; format: in vivo, Viola tricolor; details: Viola tricolor, 504 h; for pest or weed control at 20 g/ha: dosage 20 g/ha; for pest or weed control at 80 g/ha: dosage 80 g/ha
Summary of the method: as §1

ABUTH [14] = test: Post-emergence herbicidal action against ABUTH; format: in vivo, Abutilon theophrasti; details: Abutilon theophrasti, 504 h, visual assessment about 3 weeks after treatment vs untreated controls; for pest or weed control at 5 g/ha: dosage 5 g/ha; for pest or weed control at 20 g/ha: dosage 20 g/ha
Summary of the method: as §2

SETVI [15] = test: Post-emergence herbicidal action against SETVI; format: in vivo, Setaria viridis; details: Setaria viridis, 504 h; for pest or weed control at 20 g/ha: dosage 20 g/ha
Summary of the method: as §2

AMARE [16] = test: Pre-emergence herbicidal action against AMARE; format: in vivo, Amaranthus retroflexus; details: Amaranthus retroflexus, 504 h, scored visually after 3 weeks vs untreated controls, 100% = plants have died, 0% = like control plants
Summary of the method: as §1

PHBPU [17] = test: Pre-emergence herbicidal action against PHBPU; format: in vivo, Pharbitis purpurea; details: Ipomoea purpurea, 504 h, dosage 80 g/ha
Summary of the method: as §1

PHBPU [18] = test: Post-emergence herbicidal action against PHBPU; format: in vivo, Pharbitis purpurea; details: Ipomoea purpurea, 504 h, dosage 20 g/ha
Summary of the method: as §2

Structure (SMILES): CNC(=O)c1c(C(F)F)ccc(C(=O)Nc2nnnn2C)c1C1CC1 [Example 1-304]
- pest or weed control at 80 g/ha (VERPE [1]): 100%
- pest or weed control at 80 g/ha (ABUTH [2]): 100%
- pest or weed control at 20 g/ha (ABUTH [2]): 100%
- pest or weed control at 80 g/ha (ECHCG [3]): 100%
- pest or weed control at 80 g/ha (POLCO): 80%
- pest or weed control at 5 g/ha (VERPE [4]; 5 g/ha): 80%
- pest or weed control at 20 g/ha (VERPE [4]): 80%
- pest or weed control at 20 g/ha (ECHCG [5]): 90%
- pest or weed control at 20 g/ha (SETVI [6]): 90%
- pest or weed control at 80 g/ha (SETVI [6]): 100%
- pest or weed control at 20 g/ha (MATIN [7]): 90%
- pest or weed control at 80 g/ha (MATIN [7]): 100%
- pest or weed control at 5 g/ha (VIOTR [8]): 80%
- pest or weed control at 20 g/ha (VIOTR [8]): 90%
- pest or weed control at 20 g/ha (DIGSA [9]): 90%
- pest or weed control at 20 g/ha (DIGSA [10]): 100%
- pest or weed control at 80 g/ha (DIGSA [10]): 100%
- pest or weed control at 5 g/ha (MATIN [11]): 90%
- pest or weed control at 20 g/ha (MATIN [11]): 90%
- pest or weed control at 20 g/ha (AMARE [12]): 90%
- pest or weed control at 20 g/ha (VIOTR [13]): 100%
- pest or weed control at 80 g/ha (VIOTR [13]): 100%
- pest or weed control at 5 g/ha (ABUTH [14]): 90%
- pest or weed control at 20 g/ha (ABUTH [14]): 90%
- pest or weed control at 5 g/ha (SETVI [15]; dosage 5 g/ha): 90%
- pest or weed control at 20 g/ha (SETVI [15]): 90%
- pest or weed control at 20 g/ha (AMARE [16]): 100%
- pest or weed control at 80 g/ha (AMARE [16]): 100%
- pest or weed control at 80 g/ha (PHBPU [17]): 80%

Structure (SMILES): CCNC(=O)c1c(C(F)F)ccc(C(=O)Nc2nnnn2C)c1C1CC1 [Example 1-305]
- pest or weed control at 80 g/ha (VERPE [1]): 100%
- pest or weed control at 80 g/ha (ABUTH [2]): 100%
- pest or weed control at 20 g/ha (ABUTH [2]): 100%
- pest or weed control at 20 g/ha (ECHCG [3]; 20 g/ha): 80%
- pest or weed control at 80 g/ha (ECHCG [3]): 100%
- pest or weed control at 80 g/ha (POLCO): 80%
- pest or weed control at 20 g/ha (VERPE [4]): 80%
- pest or weed control at 20 g/ha (ECHCG [5]): 90%
- pest or weed control at 20 g/ha (SETVI [6]): 80%
- pest or weed control at 80 g/ha (SETVI [6]): 100%
- pest or weed control at 20 g/ha (MATIN [7]): 100%
- pest or weed control at 80 g/ha (MATIN [7]): 100%
- pest or weed control at 20 g/ha (PHBPU [18]): 90%
- pest or weed control at 5 g/ha (VIOTR [8]): 90%
- pest or weed control at 20 g/ha (VIOTR [8]): 90%
- pest or weed control at 20 g/ha (DIGSA [9]): 80%
- pest or weed control at 20 g/ha (DIGSA [10]): 100%
- pest or weed control at 80 g/ha (DIGSA [10]): 100%
- pest or weed control at 5 g/ha (MATIN [11]): 90%
- pest or weed control at 20 g/ha (MATIN [11]): 90%
- pest or weed control at 20 g/ha (AMARE [12]): 90%
- pest or weed control at 20 g/ha (VIOTR [13]): 100%
- pest or weed control at 80 g/ha (VIOTR [13]): 100%
- pest or weed control at 5 g/ha (ABUTH [14]): 90%
- pest or weed control at 20 g/ha (ABUTH [14]): 90%
- pest or weed control at 20 g/ha (SETVI [15]): 90%
- pest or weed control at 20 g/ha (AMARE [16]): 100%
- pest or weed control at 80 g/ha (AMARE [16]): 100%
- pest or weed control at 80 g/ha (PHBPU [17]): 90%
